# Measured values as given in publication PMC11047580, “Design and Synthesis of Novel Amino and Acetamidoaurones with Antimicrobial Activities” (Antibiotics, 2024).
# What was measured:
# C. albicans DSM10697 = test: MIC assay; assay type: cell-based, Candida albicans; details: Candida albicans, DSM10697; two-fold serial dilutions in liquid media; n = 2–3
# [1] = test system: Clostridium difficile (DSM1296); test: MIC assay; assay type: cell-based; details: Clostridioides difficile, two-fold serial dilutions in liquid media, n = 2–3
# MRSA (ATCCBAA-1717) = test: MIC assay; assay type: cell-based, methicillin-resistant S. aureus; details: Staphylococcus aureus, read-out: MIC MRSA (ATCCBAA-1717)
# [2] = test system: Acinetobacter baumannii (DSM30007); test: MIC assay; assay type: cell-based; details: two-fold serial dilutions in liquid media, n = 2–3
# Yersinia pestis (NR-641) = test: microbe, parasite or virus in culture; assay type: cell-based; details: read-out: MIC Yersinia pestis (NR-641)
# [3] = test system: Mycobacterium abscessus R(CIP 104536^T); test: MIC assay (REMA); assay type: cell-based; details: REMA microdilution, n = 2–3
# [4] = test system: Fusarium oxysporum (DSM62316); test: MIC assay; assay type: cell-based; details: two-fold serial dilutions in liquid media, n = 2–3
# Candida auris (DSM21092) = test: MIC assay; assay type: cell-based; details: Candidozyma auris, two-fold serial dilutions in liquid media, n = 2–3
# [5] = test system: intestinal cell line Caco-2; details: human
# [6] = Cytotoxic assay (resazurin); details: human, BEAS-2B normal lung epithelial cells
# [7] = Cytotoxic assay (resazurin); details: human, HaCaT normal epidermal keratinocytes
# [8] = Cytotoxic assay (resazurin); details: human, HepG2 liver cells
# [9] = Cytotoxic assay, summary over the six human cell types; details: human, 48 h exposure
smiles,measurement,setting,value
"CC(=O)Nc1ccc2c(c1)C(=O)/C(=C/c1cccc(OCc3ccccc3)c1)O2 [Compound 10, (Z)-N-(2-(3-(benzyloxy)benzylidene)-3-oxo-2,3-dihydrobenzofuran-5-yl)acetamide]",MIC,C. albicans DSM10697,50 µM
same,MIC,[1],12.5 µM
same,MIC,MRSA (ATCCBAA-1717),12.5 µM
same,MIC,[2],12.5 µM
same,MIC,Yersinia pestis (NR-641),12.5 µM
same,MIC,"[3]; Mycobacteroides abscessus, CIP104536, R morphotype",> 100 µM
same,MIC Mycobacterium abscessus R(CIP 104536^T),[3]; R morphotype,inactive
same,MIC,[4],25 µM
same,MIC,Candida auris (DSM21092),50 µM
same,"TI with MIC of 0.78 µM, Caco-2",[5],255.8
same,CC50 at 48 h,[6],169 µM
same,CC50 at 48 h,[7],268 µM
same,CC50 at 48 h,[8],472 µM
same,CC50 at 48 h,"[9]; Highest CC50, highest of the six human cell types",472 µM
same,CC50 at 48 h,"[9]; Lowest CC50, lowest of the six human cell types",169 µM
same,CC50 at 48 h,"[9]; Mean CC50, mean over the six human cell types",322 µM
